Experiments:
Assay type in all cases: cell-based
[1] = tested on: U2OS cells stably expressing HaloTag®-histone H2B fusion protein; assay: Photostability experiments in fixed cells; conditions: 200 nM; 30 bleach cycles
Protocol: U2OS cells (ATCC) and U2OS cells stably expressing an integrated HaloTag®-histone H2B fusion protein (U2OS·H2B·HaloTag®) were cultured in Dulbecco's modified Eagle medium (DMEM, phenol red-free; Life Technologies) supplemented with 10% (v/v) fetal bovine serum (FBS, Life Technologies), 1 mM GlutaMAX (Life Technologies) and maintained at 37° C. in a humidified 5% (v/v) CO2 environment. These cell lines undergo regular mycoplasma testing by the Janelia Cell Culture Facility. For mitochondrial imaging using the HaloTag® system, U2OS cells were transiently transfected using nucleofection (Lonza) with a plasmid constitutively expressing a HaloTag®-TOMM20 fusion protein, which is located on the outer mitochondrial membrane. […]
For photostability experiments (FIG. 1611), U2OS·H2B·HaloTag® stable cells were incubated with 200 nM HaloTag® ligands (31HTL, 106HTL, and 107HTL) for 3 h at 37° C., washed 3× with dye-free media then fixed with 4% paraformaldehyde in 0.1 M phosphate buffer, pH 7.4 for 15 min at 37° C. […] To measure photobleaching, the tunable white light laser (WLL) was used to excite dyes at their λabs in constant power mode over 30 cycles; n=3 where n indicates the number of separate cellular experiments where the intensity of the entire field of view was measured at the indicated time points. […]

[2] = tested on: U2OS cells stably expressing HaloTag®-histone H2B fusion protein; assay: Loading experiments with NIR-excited HaloTag® ligands (nuclear fluorescence); conditions: 200 nM; live cells expressing HaloTag®-histone H2B; excited at λabs
Protocol: (§1) U2OS cells (ATCC) and U2OS cells stably expressing an integrated HaloTag®-histone H2B fusion protein (U2OS·H2B·HaloTag®) were cultured in Dulbecco's modified Eagle medium (DMEM, phenol red-free; Life Technologies) supplemented with 10% (v/v) fetal bovine serum (FBS, Life Technologies), 1 mM GlutaMAX (Life Technologies) and maintained at 37° C. in a humidified 5% (v/v) CO2 environment. These cell lines undergo regular mycoplasma testing by the Janelia Cell Culture Facility. For mitochondrial imaging using the HaloTag® system, U2OS cells were transiently transfected using nucleofection (Lonza) with a plasmid constitutively expressing a HaloTag®-TOMM20 fusion protein, which is located on the outer mitochondrial membrane. For 4^−color imaging, U2OS·H2B·HaloTag® stable cells were transiently transfected by nucleofection with plasmids constitutively expressing a SNAP-tag®-TOMM20 fusion protein, and a GFP-SKL (SKL: serine-lysine-leucine) fusion protein, a prototypical peroxisomal matrix targeting signal. All labeled cells were imaged 18-24 h post-transfection or post-plating.
For loading curve experiments (FIG. 15C), U2OS·H2B·HaloTag® stable cells were incubated with 200 nM HaloTag® ligand conjugated dyes (31HTL, 36HTL, 38HTL, 104HTL, 106HTL, 107HTL, and 108HTL) for 0-4 h at 37° C., washed 3× with dye-free media then fixed with 4% paraformaldehyde in 0.1 M phosphate buffer, pH 7.4 for 15 min at 37° C. Confocal imaging was performed on a Leica Stellaris with an HC PL APO 40×/1.25 glycerol objective using the tunable white light laser (WLL) to excite dyes at their λabs in constant power mode. Fluorescence was quantified as the integrated density of nuclear signals in single-plane images analyzed in FIJI;^82 n=100 nuclear signals per compound.

[3] = molecular target: T1, U2OS cells stably expressing HaloTag®-histone H2B fusion protein (Rhodococcus rhodochrous, UniProt P0A3G2, A155T/A167V/A172T/A224E/C128F/C176G/D78G/E160K/E257K/H272N/K175M/K195N/L47V/L88M/N227D/P291S/S58T/T264A/Y273L/Y87F); assay: Labeling and confocal microscopy using ligands 59HTL and 105HTL; conditions: 200 nM, 1 h, washed
T1 construct: expressed in transfected cells
T1 sequence (P0A3G2 other isoform, or with tags, fused parts or gaps with the stated changes): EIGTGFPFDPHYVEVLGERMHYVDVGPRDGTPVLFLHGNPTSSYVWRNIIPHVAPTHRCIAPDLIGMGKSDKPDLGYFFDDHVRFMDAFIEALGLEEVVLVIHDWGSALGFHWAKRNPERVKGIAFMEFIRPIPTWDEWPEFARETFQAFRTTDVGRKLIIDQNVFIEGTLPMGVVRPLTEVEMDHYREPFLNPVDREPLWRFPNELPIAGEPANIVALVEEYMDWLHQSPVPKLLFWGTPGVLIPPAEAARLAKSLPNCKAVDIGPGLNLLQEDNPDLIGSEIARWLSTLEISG
Protocol: as §1, with “post-plating. […]” for “post-plating.”

[4] = tested on: JM8·N4 mouse embryonic stem cells stably expressing histone H2B-HaloTag® fusion proteins; assay: Single-particle tracking (SPT) experiments; conditions: 100 Hz imaging
Protocol: SPT experiments were carried out as previously described.^84 JM8·N4 mouse embryonic stem cells (ESCs) stably expressing histone H2B-HaloTag® fusion proteins were generated by co-expressing the PiggyBac EF1a-H2B-HaloTag®-IRES-Neo vector with the super piggyBac transposase as described previously,85 followed by G418 selection (500 μg/mL) for 2 weeks and verified by FACS sorting/confocal imaging staining with JF549-HaloTag® ligand (84HTL; 100 nM, 30 min). Cells were seeded on 25 mm #1.5 coverglass pre-cleaned with KOH and ethanol and coated with iMatrix-511 (TaKaRa #T304) or rhLaminin-521 (Gibco™ #A^29248) according to the manufacturers' instruction. All live-cell imaging experiments were conducted using an ESC imaging medium composed of FluoroBrite DMEM (ThermoFisher) plus 15% v/v ESC-qualified FBS, 1× GlutaMax, 1×NEAA, 0.1 mM 2^−mercaptoethanol, and LIF. For comparison of 59HTL and 89HTL (FIG. 13E, 13F) the histone H2B-HaloTag® ESCs were stained with 5 nM 59HTL for 1 h or 0.1 nM 89HTL for 15 min at 37° C. with 5% (v/v) CO2 to achieve sparse labeling with approximately equal localizations per region of interest (ROI), and then washed with dye-free media 3× for 30 min each wash For comparison of 40HTL, 44HTL, 1HTL, or 89HTL (FIG. 12A-12G) the histone H2B-HaloTag® ESCs were stained with 1 nM of HaloTag® ligands for 15 min at 37° C. with 5% (v/v) CO2 to achieve sparse labeling, and then washed with dye-free media 3× for 30 min each wash.
To quantify the brightness and photostability of the HaloTag® ligands, labeled cells were mounted onto a high speed motorized Nikon Eclipse Ti-E inverted microscope equipped with the following: 100× Apo TIRF 1.49 NA objective with a correction collar; four excitation laser lines (405/488/561/642 nm) and matching TIRF quad cube (405/488/561/640 nm reflection bands); automatic TIRF illuminator with motorized X axis and manual Y axis for beam positioning and focus: perfect focus 3 system; Triple DU-897 iXon Ultra EMCCD cameras on a Cairn Tri-cam emission splitter with filters 525/50 (GFP) 600/50 (RFP) and 705/72 (Cy5); humidified incubation chamber maintained at 37° C. with 5% v/v CO2 (Tokai Hit). SPT was performed at 100 Hz for the comparison of 59HTL and 89HTL (FIG. 13E, 13F) and 50 Hz for the comparison of 40HTL, 44HTL, 1HTL, or 89HTL (FIG. 12A-12G); the imaging session was performed for ˜5000 frames using 100% of maximal excitation power (˜120 mW at the fiber end before the TIRF unit). […] For the comparison of HaloTag® ligands 59HTL and 89HTL (FIG. 13E, 13F) and the comparison of compounds 40HTL, 44HTL, 1HTL, and […] (FIG. 12A-12G), the fluorophores were excited with a 647 nm laser. To minimize drift during imaging, the incubation chamber was fully thermally equilibrated, and all imaging was conducted in an isolated ultra-clean room with minimal mechanical vibrations. The microscope, laser lines, and camera integration were controlled using the Nikon NIS-Elements software. Cells with obvious movement during acquisition were removed from further analysis. SMT analysis was based on multiple target tracing 86 (MTT) with tracking parameters similar to previous work.^84 For SPT brightness (photon counts/molecule/s), intensity values from sparsely-labeled molecules were analyzed. For the comparison of HaloTag® ligands 59HTL and 89HTL (FIG. 13E, 13F): n=147,298 single-molecule events using 59HTL; n=100,392 single-molecule events using 89HTL. […]

| Compound | brightness and photostability compared with 107HTL and 106HTL [1] | nuclear intensity compared to the other ligands [2] | nuclear labeling of histone H2B-HaloTag® in live cells [3] | SPT brightness (photons/s) compared with 89HTL [4] | SPT localizations over time [4] |
| --- | --- | --- | --- | --- | --- |
| CCc1cc2c(c3c1=[N+](C)CCC3)[Si](C)(C)c1c(cc3c4c1CCCN4CCC3)C=2c1c(F)c(C(=O)NCCOCCOCCCCCCCl)c(F)c(F)c1C(=O)[O-] [31HTL, JF698-HaloTag® ligand] | brighter and more photostable | > 3 fold | – | – | – |
| ATTO 647N-HaloTag® ligand [105HTL, reference compound] | – | – | does not show appreciable labeling in the nucleus | – | – |
| CCc1cc2c(c3c1=[N+](C)CCC3)C(C)(C)c1cc3c(cc1C=2c1c(F)c(C(=O)NCCOCCOCCCCCCCl)c(F)c(F)c1C(=O)[O-])C(C)CC(C)(C)N3CC (stereo not drawn) [59HTL, JF657-HaloTag® ligand] | – | – | excellent nuclear staining with little cellular background after washing | significant improvement in brightness | consistent localizations over time |

From US20250115628A1, “FLUORINATED FLUOROPHORES” (HOWARD HUGHES MEDICAL INSTITUTE, priority 2023, published 2025)
